Source: publication PMC8776894 (Communications Biology, 2022)
“And” between values parts separate entries of the source, which are not always exact repeats. Equal entries are not always repeated. Where two headings read alike, the source gives them in different places.

Columns and labels:
[1] = system: mice; assay: Acute toxicity test (single i.p. dose); assay type: in vivo, mouse
Description: To ensure that the safety of VK in vivo, acute toxicity test was performed. […] Clinical symptoms (temperature, change in skin, eye color change, general physique, body weight, diarrhea, sedation, and organ index) were recorded (Supplementary Table 3). […] Karyopyknosisa and the cellular swelling of the hepatocyte were moderate in the liver of mice treated with VK (96 and 384 mg/kg). […]
Acute toxicity test. Systemic acute toxicity test by peritoneal injection was performed according to the guideline provided by Center for Drug Evaluation and Research. In addition to the normal group, male mice were randomly divided into the treated groups received a single dose of 1.5 mg/kg, 6 mg/kg, 24 mg/kg, 96 mg/kg and 384 body weight of VK. Clinical signs of toxicity such as mortality, skin, eyes, fur, respiratory pattern , changes in general behavior and activity were individually observed. […]
day, the mice were anesthetized with 1.5% isoflurane in a mixture of 30% O2 and 69% N2O. Blood was collected from muse eyeballs and mixed with 3.2% sodium citrate at a v/v ratio of 1:9. Then, the blood was centrifuged at 3,000 rpm for 10 min.
The obtained plasma was analyzed using an automatic coagulation apparatus (CA1500).

[2] = VK stability in plasma (HPLC); assay type: in vitro ADME; conditions: plasma (species not given), pH 7.4, 37 °C, 750 rpm, at 120 min; VK 0.735 mM (Fig. 1 legend 73.5 nM); HPLC-UV 215 nm, peak area relative to 0 min; at least triplicate
Description: Proteolytic degradation of peptide-based drugs is generally considered as the main defect to limit systemic therapeutic applications. Therefore, high-performance liquid chromatography (HPLC) was used to assess the stability of VK in PBS or plasma at physiological pH (7.4) and temperature (37 °C). […] For neuropharmacology, crossing the BBB is a remarkable challenge, and VK was labeled with FITC in the N-terminus. FITC-labeled VK was then administered to stroke mice. After 30 min, these mice were imaged by an in vivo imaging system. […] Brains were collected at 0, 30, 60, 90, and 120 min and the distribution of VK was observed. […] To further evaluate whether VK was a cell-penetrating peptide, the oxygen-glucose deprivation/reoxygenation (OGD/R) model simulated I/R […] was established in HT22 hippocampal neuron cells and FITC-labeled VK was incubated for 120 min.
VK in PBS or plasma was detected by quantifying the peak areas relative to the initial peak areas (0 min). All stability tests were performed at least in triplicate.

[3] = system: BV2 microglia cells (OGD/R); assay: BV2 cell viability after OGD/R (CCK8); conditions: VK 0.0735, 0.735, 7.35 µM
[4] = system: rat CNS; conditions: injected directly into the rat CNS; cited from earlier work
Excerpt: B1R and B2R both belong to the G protein-coupled receptor (GPCR) family, with B2R mediating most of the physiological functions of kinin. It has been increasingly appreciated that BK and Lys-BK could act as a ‘double-edged sword’. By inhibiting oxidative stress and apoptosis, the systemic or local delivery of human TK protects against mouse myocardial I/R injury via B2R. Similarly, we described that the neuroprotective effects of VK on stroke in mice was inhibited by HOE140, the specific antagonist of B2R. We also conducted the autodock experiment to evaluate the combination of VK and B2R. The ...

[5] = system: MCAO/R mice; assay: Rotarod test; assay type: in vivo, mouse; conditions: VK 150 and 300 µg/kg i.p.
Description: The mice were placed in a RotaRod Treadmill (Harvard Apparatus, LE8205) for adaptive training 3 days before MACO/R. The rotating rod was started and the speed was set to accelerate to 40 rpm within 5 min. The mice drop time was recorded as an indicator. The test was performed at 24 and 48 h after MCAO/R.

[6] = system: pyramidal neurons of mouse neocortex; assay type: in vivo; conditions: for Fig.6g mEPSC amplitude per recorded neuron: individual values
[7] = VK 1.5 mg/kg single i.p., n=5, 14 d observation
[8] = VK 6 mg/kg single i.p., n=6, 14 d observation
[9] = VK 24 mg/kg single i.p., n=6, 14 d observation
[10] = VK 96 mg/kg single i.p., n=6, 14 d observation
[11] = VK 384 mg/kg single i.p., n=6, 14 d observation

For “Gly-Arg-Pro-Hyp-Gly-Phe-Ser-Pro-Phe-Arg-Ile-Asp [VK, Vespakinin-M]”, the Body weight [1, 7] was “Normal”, the Breathing difficulty [1, 7] was “Normal” and the “Change In skin” value [1, 7] was “No effect”. For the same substance, the Coma [1, 7] was “Normal”, the Death [1, 7] was “Alive” and the Diarrhea [1, 7] was “Normal”. For the same substance, the Drowsiness [1, 7] was “Normal”, the Eye color change [1, 7] was “No effect” and the Organ index [1, 7] was “Normal”. The Sedation [1, 7] was “Normal”, the Temperature [1, 7] was “Normal” and the Tremor [1, 7] was “Normal”. For the same substance, the Body weight [1, 8] was “Normal”, the Breathing difficulty [1, 8] was “Normal” and the “Change In skin” value [1, 8] was “No effect”. For the same substance, the Coma [1, 8] was “Normal”, the Death [1, 8] was “Alive” and the Diarrhea [1, 8] was “Normal”. For the same substance, the Drowsiness [1, 8] was “Normal”, the Eye color change [1, 8] was “No effect” and the Organ index [1, 8] was “Normal”. The Sedation [1, 8] was “Normal”, the Temperature [1, 8] was “Normal” and the Tremor [1, 8] was “Normal”. For the same substance, the Body weight [1, 9] was “Decline”, the Breathing difficulty [1, 9] was “Normal” and the “Change In skin” value [1, 9] was “No effect”. For the same substance, the Coma [1, 9] was “Normal”, the Death [1, 9] was “Alive” and the Diarrhea [1, 9] was “Normal”. The Drowsiness [1, 9] was “Normal”, the Eye color change [1, 9] was “No effect” and the Organ index [1, 9] was “Normal”. For the same substance, the Sedation [1, 9] was “Normal”, the Temperature [1, 9] was “Normal” and the Tremor [1, 9] was “Normal”. The Body weight [1, 10] was “Decline”, the Breathing difficulty [1, 10] was “Normal” and the “Change In skin” value [1, 10] was “No effect”. The Coma [1, 10] was “Normal”, the Death [1, 10] was “Alive” and the Diarrhea [1, 10] was “Normal”. For the same substance, the Drowsiness [1, 10] was “Normal”, the Eye color change [1, 10] was “No effect” and the Organ index [1, 10] was “Normal”. For the same substance, the Sedation [1, 10] was “Normal”, the Temperature [1, 10] was “Normal” and the Tremor [1, 10] was “Normal”. For the same substance, the liver index ([1]; VK 384 mg/kg single i.p.) was “increased liver index”, the Body weight [1, 11] was “Decline” and the Breathing difficulty [1, 11] was “Normal”. For the same substance, the “Change In skin” value [1, 11] was “No effect”, the Coma [1, 11] was “Normal” and the Death [1, 11] was “Alive”. For the same substance, the Diarrhea [1, 11] was “Normal”, the Drowsiness [1, 11] was “Normal” and the Eye color change [1, 11] was “No effect”. For the same substance, the Organ index [1, 11] was “Increased”, the Sedation [1, 11] was “Normal” and the Temperature [1, 11] was “Normal”. For the same substance, the Tremor [1, 11] was “Normal”, the Body weight ([1]; VK 24, 96 and 384 mg/kg single i.p.) was “continued to lose weight until day 5” and the “index of brain, myocardium and kidney” value ([1]; all treatment dose groups (1.5-384 mg/kg single i.p.)) was “no difference”. The “safe multiple of the effective dose (150 μg/kg)” value ([1]; mice) was 640 times, the “safe doses of VK in acute toxicity tests” value ([1]; mice, single i.p. dose) was < 96 mg/kg and the mortality ([1]; single i.p. dose 1.5, 6, 24, 96 and 384 mg/kg, observed for 24 h) was “no mortality was observed”. The “degradation of VK in plasma” value [2] was “completely degraded”, the “OGD/R-reduced viability of BV2 cells” value [3] was “reversed by VK treatment in a dose-dependent manner” and the “anti-nociceptive potency relative to BK” value [4] was “approximately three times more potent”. The “sensorimotor function, rotarod test” value [5] was “improved functional performance and ameliorated the sensorimotor asymmetry”, the “action potential threshold of pyramidal neurons vs vehicle” value ([6]; 48 h after MCAO) was “higher action potential threshold” and the “Fig.6g mEPSC amplitude per recorded neuron” value ([6]; VK150, n = 14) was 19.084 pA and 16.328 pA and 11.543 pA and 20.277 pA and 16.752 pA and 17.611 pA and 14.33 pA and 14.518 pA and 18.178 pA and 20.574 pA and 16.408 pA and 17.172 pA and 18.064 pA and 16.721 pA. For the same substance, the “Fig.6g mEPSC amplitude per recorded neuron” value ([6]; VK300, n = 18) was 16.409 pA and 16 pA and 15.374 pA and 15.042 pA and 15.977 pA and 15.473 pA and 16.722 pA and 19.242 pA and 17.388 pA and 16.685 pA and 16.328 pA and 14.712 pA and 16.978 pA and 16.137 pA and 19.209 pA and 18.238 pA and 16.732 pA and 16.833 pA and the “amplitude of mEPSCs” value ([6]; after stroke in mice) was “no obvious effects on the amplitude of mEPSCs”.
